PMC2593902, “Regulation of cyclic AMP response-element binding-protein (CREB) by Gq/11-protein-coupled receptors in human SH-SY5Y neuroblastoma cells” (Biochemical Pharmacology, 2008)

Molecular target: T1, M3 muscarinic acetylcholine (mACh) receptor (Homo sapiens, UniProt P20309)
T1 construct: gene CHRM3
Experiment: Fura-2 Ca2+ mobilization in SH-SY5Y cells endogenously expressing the receptor (also Ins([…])P3 and phospho-CREB)
Format: cell-based

T1 sequence (P20309 whole entry): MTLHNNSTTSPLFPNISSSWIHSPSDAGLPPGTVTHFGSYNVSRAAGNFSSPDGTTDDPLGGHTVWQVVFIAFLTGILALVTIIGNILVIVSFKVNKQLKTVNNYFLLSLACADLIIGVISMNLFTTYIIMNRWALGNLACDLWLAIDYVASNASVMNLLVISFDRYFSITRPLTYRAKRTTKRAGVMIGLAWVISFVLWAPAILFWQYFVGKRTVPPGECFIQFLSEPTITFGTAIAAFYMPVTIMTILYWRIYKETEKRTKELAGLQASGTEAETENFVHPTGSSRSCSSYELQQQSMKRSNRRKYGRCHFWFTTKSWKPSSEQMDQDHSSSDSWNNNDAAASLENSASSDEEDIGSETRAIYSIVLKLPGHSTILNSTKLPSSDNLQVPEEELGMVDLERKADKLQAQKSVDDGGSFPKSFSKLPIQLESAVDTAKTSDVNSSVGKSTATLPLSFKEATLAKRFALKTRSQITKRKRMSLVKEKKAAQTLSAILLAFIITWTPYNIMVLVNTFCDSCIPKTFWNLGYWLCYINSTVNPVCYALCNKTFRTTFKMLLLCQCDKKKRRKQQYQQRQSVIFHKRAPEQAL

`CC(=O)OC(C)C[N+](C)(C)C` (stereo not shown) [MCh, methacholine] gave an EC50 of 800 nM.
